Source: patent US20020035061A1, “COMPOSITIONS AND METHODS FOR TREATING INFECTIONS USING CATIONIC PEPTIDES ALONE OR IN COMBINATION WITH ANTIBIOTICS” (priority 1996, published 2002)
Like-named read-outs stand apart in the source and are kept apart here.

What was measured:
A. calcoaceticus = format: cell-based
E. cloacae = format: cell-based
E. coli = format: cell-based
E. faecalis = format: cell-based; conditions: for MIC, Peptide: unmodified parent peptide
E. faecium = format: cell-based; conditions: E. faecium strain EFM003
H. influenzae = assay: Agarose dilution assay (MIC); format: cell-based; conditions: H. influenzae strain HIN002
K. pneumoniae = format: cell-based
P. aeruginosa = format: cell-based
S. aureus = format: cell-based; conditions: for MIC, Peptide: unmodified parent peptide
S. epidermidis = format: cell-based; conditions: S. epidermidis strain SE003
S. maltophilia = format: cell-based
S. marcescens = format: cell-based
S. pneumoniae = assay: Agarose dilution assay (MIC); format: cell-based
S. pyogenes = assay: Agarose dilution assay (MIC); format: cell-based; conditions: S. pyogenes strain SPY006
bacterial isolates = assay: microbe, parasite or virus in culture; format: cell-based
[1] = test system: inherently resistant microorganisms; assay: microbe, parasite or virus in culture; format: cell-based; conditions: S. aureus
[2] = test system: microorganisms with acquired resistance; assay: microbe, parasite or virus in culture; format: cell-based
[3] = test system: MSSA (Smith, ATCC # 19640); assay: In vivo efficacy, MSSA infection; design: species or system S. aureus; conditions: formulation D, 60 min post-infection, end of eight day observation
[4] = A. baumannii ABI001, Tobramycin section
[5] = P. aeruginosa 23, Piperacillin section
[6] = P. aeruginosa PA032, Tobramycin section
[7] = S. aureus SA014 (also SA014 MRSA)
[8] = S. maltophilia SMA029, Tobramycin section
[9] = S. maltophilia SMA030, Tobramycin section
[10] = peptide + Piperacillin, P. aeruginosa 23
[11] = peptide + Tobramycin, A. baumannii ABI001
[12] = peptide + Tobramycin, P. aeruginosa PA032
[13] = peptide + Tobramycin, S. maltophilia SMA029
[14] = peptide + Tobramycin, S. maltophilia SMA030

ILKKWVWWPWRRK [MBI 11F3CN]
MIC, Peptide (A. calcoaceticus; A. calcoaceticus AC002, unmodified parent peptide): 2 µg/mL
MIC (A. calcoaceticus; A. calcoaceticus strain AC002): 4 µg/mL
MIC, Peptide (E. cloacae; E. cloacae ECL007, unmodified parent peptide): >128 µg/mL
MIC (E. cloacae; E. cloacae strain ECL007): >128 µg/mL
MIC, Peptide (E. coli; E. coli ECO005, unmodified parent peptide): 16 µg/mL
MIC (E. coli; E. coli strain ECO002): 8 µg/mL
MIC, Peptide (E. faecalis; E. faecalis EFS001): 32 µg/mL
MIC, Peptide (E. faecalis; E. faecalis EFS004): 16 µg/mL
MIC, Peptide (E. faecalis; E. faecalis EFS008): 16 µg/mL
MIC (E. faecalis; E. faecalis strain EFS002): 8 µg/mL
MIC (E. faecium): 4 µg/mL
MIC (H. influenzae): >128 µg/mL
MIC, Peptide (K. pneumoniae; K. pneumoniae KP001, unmodified parent peptide): 64 µg/mL
MIC (K. pneumoniae; K. pneumoniae strain KP002): 64 µg/mL
MIC, Peptide (P. aeruginosa; P. aeruginosa PA004, unmodified parent peptide): 128 µg/mL
MIC (P. aeruginosa; P. aeruginosa strain PA041): 128 µg/mL
MIC, Peptide (S. aureus; S. aureus SA010): 2 µg/mL
MIC, Peptide (S. aureus; S. aureus SA011): 8 µg/mL
MIC, Peptide (S. aureus; S. aureus SA014): 8 µg/mL
MIC, Peptide (S. aureus; S. aureus SA018): 16 µg/mL
MIC, Peptide (S. aureus; S. aureus SA025): 2 µg/mL
MIC, Peptide (S. aureus; S. aureus SA093): 1 µg/mL
MIC (S. aureus; S. aureus strain SA005): 2 µg/mL
MIC (S. epidermidis): 2 µg/mL
MIC, Peptide (S. maltophilia; S. maltophilia SMA002, unmodified parent peptide): 64 µg/mL
MIC (S. maltophilia; S. maltophilia strain SMA002): 64 µg/mL
MIC, Peptide (S. marcescens; S. marcescens SMS003, unmodified parent peptide): >128 µg/mL
MIC (S. marcescens; S. marcescens strain SMS004): >128 µg/mL
MIC (S. pneumoniae; S. pneumoniae strain SBSPN3): >128 µg/mL
MIC (S. pneumoniae; S. pneumoniae strain SPN044): >128 µg/mL
MIC (S. pyogenes): 8 µg/mL
Peptide MIC + Tobramycin (bacterial isolates; A. baumannii ABI001): 16 µg/mL
Tobramycin MIC + Peptide (bacterial isolates; A. baumannii ABI001): 0.5 µg/mL
Peptide MIC Alone (bacterial isolates; [4]): 32 µg/mL
Peptide MIC + Tobramycin (bacterial isolates; A. baumannii ABI002): 8 µg/mL
Tobramycin MIC + Peptide (bacterial isolates; A. baumannii ABI002): 2 µg/mL
Peptide MIC Alone (bacterial isolates; A. baumannii ABI002, Tobramycin section): 16 µg/mL
Peptide MIC + Piperacillin (bacterial isolates; P. aeruginosa 23): 0.5 µg/mL
Piperacillin MIC + Peptide (bacterial isolates; P. aeruginosa 23): 64 µg/mL
Peptide MIC Alone (bacterial isolates; [5]): 64 µg/mL
Peptide MIC + Piperacillin (bacterial isolates; P. aeruginosa 41): 64 µg/mL
Piperacillin MIC + Peptide (bacterial isolates; P. aeruginosa 41): 4 µg/mL
Peptide MIC Alone (bacterial isolates; P. aeruginosa 41, Piperacillin section): 128 µg/mL
Peptide MIC + Tobramycin (bacterial isolates; P. aeruginosa PA032): 64 µg/mL
Tobramycin MIC + Peptide (bacterial isolates; P. aeruginosa PA032): 4 µg/mL
Peptide MIC Alone (bacterial isolates; [6]): >128 µg/mL
Piperacillin MIC + Peptide (bacterial isolates; S. aureus 19 MRSA): 32 µg/mL
Peptide MIC Alone (bacterial isolates; S. aureus 19 MRSA, Piperacillin section): 4 µg/mL
Peptide MIC + Tobramycin (bacterial isolates; [7]): 2 µg/mL
Tobramycin MIC + Peptide (bacterial isolates; [7]): 2 µg/mL
Peptide MIC Alone (bacterial isolates; S. aureus SA014 (also SA014 MRSA), Tobramycin section): 4 µg/mL
Peptide MIC + Piperacillin (bacterial isolates; S. aureus SB3MRSA): 2 µg/mL
Piperacillin MIC + Peptide (bacterial isolates; S. aureus SB3MRSA): 64 µg/mL
Peptide MIC Alone (bacterial isolates; S. aureus SB3MRSA, Piperacillin section): 8 µg/mL
Peptide MIC + Tobramycin (bacterial isolates; S. haemolyticus SHA005): 2 µg/mL
Tobramycin MIC + Peptide (bacterial isolates; S. haemolyticus SHA005): 0.25 µg/mL
Peptide MIC Alone (bacterial isolates; S. haemolyticus SHA005, Tobramycin section): 4 µg/mL
Peptide MIC + Tobramycin (bacterial isolates; S. maltophilia SMA029): 4 µg/mL
Tobramycin MIC + Peptide (bacterial isolates; S. maltophilia SMA029): 32 µg/mL
Peptide MIC Alone (bacterial isolates; [8]): 128 µg/mL
Peptide MIC + Tobramycin (bacterial isolates; S. maltophilia SMA030): 32 µg/mL
Tobramycin MIC + Peptide (bacterial isolates; S. maltophilia SMA030): 1 µg/mL
Peptide MIC Alone (bacterial isolates; [9]): 128 µg/mL
FIC (bacterial isolates; [10]): 0.51
FIC (bacterial isolates; peptide + Piperacillin, P. aeruginosa 41): 0.63
FIC (bacterial isolates; peptide + Piperacillin, S. aureus 19 MRSA): 0.38
FIC (bacterial isolates; peptide + Piperacillin, S. aureus SB3MRSA): 0.50
FIC (bacterial isolates; [11]): 0.53
FIC (bacterial isolates; peptide + Tobramycin, A. baumannii ABI002): 1.00
FIC (bacterial isolates; [12]): 0.50
FIC (bacterial isolates; peptide + Tobramycin, S. aureus SA014 (also SA014 MRSA)): 0.51
FIC (bacterial isolates; peptide + Tobramycin, S. haemolyticus SHA005): 0.56
FIC (bacterial isolates; [13]): 0.28
FIC (bacterial isolates; [14]): 0.26
Peptide MIC + Tobramycin [1]: 2 µg/mL
Peptide MIC Alone ([1]; Tobramycin section): 4 µg/mL
FIC ([1]; peptide + Tobramycin): 0.51
Peptide MIC + Tobramycin ([2]; A. baumannii ABI001): 16 µg/mL
Tobramycin MIC + Peptide ([2]; A. baumannii ABI001): 0.5 µg/mL
Peptide MIC Alone [2, 4]: 32 µg/mL
Peptide MIC + Piperacillin ([2]; A. calcoaceticus 3): 4 µg/mL
Piperacillin MIC + Peptide ([2]; A. calcoaceticus 3): 16 µg/mL
Peptide MIC Alone ([2]; A. calcoaceticus 3, Piperacillin section): 32 µg/mL
Peptide MIC + Piperacillin ([2]; P. aeruginosa 7): 64 µg/mL
Piperacillin MIC + Peptide ([2]; P. aeruginosa 7): 64 µg/mL
Peptide MIC Alone ([2]; P. aeruginosa 7, Piperacillin section): 128 µg/mL
Peptide MIC + Piperacillin ([2]; P. aeruginosa 23): 0.5 µg/mL
Piperacillin MIC + Peptide ([2]; P. aeruginosa 23): 64 µg/mL
Peptide MIC Alone [2, 5]: 64 µg/mL
Peptide MIC + Tobramycin ([2]; P. aeruginosa PA032): 64 µg/mL
Tobramycin MIC + Peptide ([2]; P. aeruginosa PA032): 4 µg/mL
Peptide MIC Alone [2, 6]: >128 µg/mL
Peptide MIC + Piperacillin ([2]; S. maltophilia 2): 16 µg/mL
Piperacillin MIC + Peptide ([2]; S. maltophilia 2): 16 µg/mL
Peptide MIC Alone ([2]; S. maltophilia 2, Piperacillin section): 32 µg/mL
Peptide MIC + Tobramycin ([2]; S. maltophilia SMA029): 32 µg/mL
Tobramycin MIC + Peptide ([2]; S. maltophilia SMA029): 1 µg/mL
Peptide MIC Alone [2, 8]: 128 µg/mL
Peptide MIC + Tobramycin ([2]; S. maltophilia SMA030): 32 µg/mL
Tobramycin MIC + Peptide ([2]; S. maltophilia SMA030): 1 µg/mL
Peptide MIC Alone [2, 9]: 128 µg/mL
FIC ([2]; peptide + Piperacillin, A. calcoaceticus 3): 0.63
FIC ([2]; peptide + Piperacillin, P. aeruginosa 7): 1.00
FIC [2, 10]: 0.51
FIC ([2]; peptide + Piperacillin, S. maltophilia 2): 0.75
FIC [2, 11]: 0.53
FIC [2, 12]: 0.50
FIC [2, 13]: 0.26
FIC [2, 14]: 0.26
% Survival ([3]; 12 mg/kg ip): 0%
% Survival ([3]; 18 mg/kg ip): 10%
% Survival ([3]; 24 mg/kg ip): 90%
